Experiments:
S. aureus [1] = assay: Five-minute kill test of solutions in 10% SDA40-B alcohol and water, colony counts on TSA; assay type: cell-based; settings: 5 minutes contact
Description: Various concentrations of basil oil and acetic, lactic, and citric acids, separately and in combination, were prepared in 10 percent SDA40-B alcohol and water, and adjusted to 100 percent. Except for citric acid, which was added by weight, all other ingredients were measured by volume. 0.9 ml of each solution were dispensed in sterile culture tubes, in triplicate, and 0.1 ml of a 10^7 cfu/ml S. aureus culture was added to the tubes, vortexed, and then, five minutes later, 9.0 ml of drug inactivating medium was added to each tube. Serial dilutions were made with the drug inactivating medium. 0.5 ml of the dilutions were plated on trypticase soy agar (“TSA”) plates. As a control, water containing 10 percent SDA40-B alcohol was processed in parallel. The plates were incubated at 37° C. for 24-48 hours and then the colony counts were determined.
The same methodology was used to test the antimicrobial activity of combinations of citric acid with other essential oils.
Next, the same general protocol was used to test the efficacy of basil, cinammon and citronella oils against a variety of organisms, namely E. coli, P. aeruginosa, MRSA, C. albicans, and S. aureus.
Various concentrations of cinnamon leaf oil and citric acid were dissolved in SDA 40-B alcohol (10%) and water, and adjusted to 100 percent. Except for citric acid, which was added by weight, all other ingredients were measured by volume. 0.9 ml of each solution were dispensed in sterile culture tubes, in triplicate, and 0.1 ml of 10^7 cfu/ml of S. aureus culture was added to the tubes, vortexed, and then, five minutes later, 9.0 ml of drug inactivating medium was added to each tube. Serial dilutions were made with the drug inactivating medium. 0.5 ml of the dilutions were plated on trypticase soy agar (“TSA”) plates. As a control, water containing 10% percent SDA40-B alcohol was processed in parallel. The plates were incubated at 37° C. for 24-48 hours and then the colony counts were determined.
The following experiments were performed to evaluate the antibacterial activity of LG and Citric acid dissolved in alcohol, where the test organism used was S. aureus. Various amounts of LG oil and Citric acid were dissolved in SDA40-B alcohol, and then water was added to result in the EO concentration shown and an alcohol concentration of 10 percent. 0.9 ml of each solution were dispensed in sterile culture tubes, in triplicate, and 0.1 ml of a 10^7 cfulml S. aureus culture was added to the tubes, vortexed, and then, five minutes later, 9.0 ml of drug inactivating medium was added to each tube. Serial dilutions were made with drug inactivating medium. 0.5 ml of the dilutions were plated on trypticase soy agar (“TSA”) plates. As a control, water containing 10 percent SDA40-B alcohol was processed in parallel. The plates were incubated at 37° C. for 24-48 hours and then the colony counts were determined.

S. aureus [2] = assay: Soap rapid antimicrobial activity (30 second kill) with bovine serum; assay type: cell-based
Description: The antimicrobial activity of the above soap was tested in parallel with commercial Softsoap® containing triclosan (Softsoap Antibacterial; Colgate-Palmolive). 0.1 ml of a 10^8 cfu/ml culture of each microbe tested was mixed with 0.1 ml of bovine serum and placed in a sterile culture tube. 0.8 ml of the test soap formulation was added to the tube and vortexed for 30 seconds. Then 9.0 ml DNB was added to neutralize the activity of the soap. The tube was then vortexed and serially diluted with DNB. 0.5 ml of the diluted solution was plated on TSA plates. The same soap base lacking cinnamon oil, citric acid, and orange oil, with phosphate buffered saline mixed with the culture, were used as the controls.
The antimicrobial activity of the above soap was tested in parallel with commercial Dial® Antibacterial Hand Soap) containing triclosan. 0.1 ml of a 10^8 cfu/ml culture of each microbe tested was mixed with 0.1 ml of bovine serum and placed in a sterile culture tube. 0.8 ml of the test soap formulation was added to the tube and vortexed for 30 seconds. Then 9.0 ml DNB was added to neutralize the activity of the soap. The tube was then vortexed and serially diluted with DNB. 0.5 ml of the diluted solution was plated on TSA plates. […]
(§1) A mixture of 0.1 ml of 10^7 cfu/ml of S. aureus culture and 0.1 ml of bovine serum were placed in a sterile culture tube. […] 0.5 ml of the diluted solution was plated on trypticase soy agar plates, incubated at 37° C. for 24-48 hrs and the colony counts were determined. […]
as §1
A mixture of 0.1 ml of 10^8 cfu/ml of S. aureus culture and 0.1 ml of bovine serum were placed in a sterile culture tube. […] 0.5 ml of the diluted solution was plated on trypticase soy agar plates, incubated at 37° C. for 24-48 hrs and the colony counts were determined.

[3] = SDA 40-B alcohol (10%) and water (Table 71)
[4] = 10 percent SDA40-B alcohol, control counts 1 × 10^6 to 5 × 10^6 (Table 66)
[5] = 10 percent SDA40-B alcohol, control counts 1 × 10^6 to 5 × 10^6 (Table 67)

In the case of `O=C(O)CC(O)(CC(=O)O)C(=O)O` [Citric Acid 2%, Citric Acid], the “Log 10 reduction” value (S. aureus [1]; [3]) is reported as 0.32 log10.
For `CC(=O)O` [1% Acetic acid (AA), Acetic acid], the “Log 10 reduction” value (S. aureus [1]; [4]) was 0.2 log10.
With `O=C(O)CC(O)(CC(=O)O)C(=O)O` [1% Citric Acid (CA), Citric Acid] the “Log 10 reduction” value (S. aureus [1]; [4]) was 0.1 log10, the “Log 10 reduction” value (S. aureus [1]; [5]) was 0.1 log10 and the “Log10 reduction from control” value (S. aureus [1]; 10 percent alcohol, control counts 1 × 10^6 to 5 × 10^6 (Table 79)) was 0.3 log10. The “Log 10 reduction” value (S. aureus [1]; SDA 40-B alcohol (10%) and water (Table 71), listed as Citric Acid 1.0%) was 0.30 log10.
With `O=C(O)CC(O)(CC(=O)O)C(=O)O` [1.0 citric acid] the “Log10 reduction from control” value (S. aureus [2]; compounds (% w/w) in soft soap lacking triclosan, PBS control counts 7 × 10^7-1 × 10^8) was 1.3 log10.
In the case of `O=C(O)CC(O)(CC(=O)O)C(=O)O` [Citric Acid 0.125%, Citric Acid], the “Log 10 reduction” value (S. aureus [1]; [3]) is reported as 0.02 log10.
In the case of `CC(C)=CCCC(C)=CCCC(C)=CCO` [0.25% Farnesol, Farnesol], the “Log 10 reduction” value (S. aureus [1]; [5]) is reported as 0 log10.
For `O=C(O)CC(O)(CC(=O)O)C(=O)O` [Citric Acid 0.25%, Citric Acid], the “Log 10 reduction” value (S. aureus [1]; [3]) was 0.08 log10.
In the case of `CC(O)C(=O)O` (centres unmarked) [1% Lactic acid (LA), Lactic acid], the “Log 10 reduction” value (S. aureus [1]; [4]) is reported as 2.3 log10.
For `O=C(O)CC(O)(CC(=O)O)C(=O)O` [Citric Acid 0.5%, Citric Acid], the “Log 10 reduction” value (S. aureus [1]; [3]) was 0.20 log10.
`CCCCCCCCC(O)CO` (centres unmarked) [1,2 decanediol (0.3%)] was tested, and the “Log10 reduction from control” value (S. aureus [2]; alkanediol 0.3% w/w where present, control counts 2 × 10^8-5 × 10^8) was 0.6 log10.
For `CCCCCCCCC(O)CO` (centres unmarked) [1,2 decanediol(0.5%)], the “Log10 reduction from control” value (S. aureus [2]; alkanediol 0.5% w/w where present, soap pH 4.5-4.6, control counts 2 × 10^8-5 × 10^8) was 1.4 log10.

— patent US20100172848A1, “SKIN AND SURFACE DISINFECTANT COMPOSITIONS CONTAINING BOTANICALS” (The Trustees Of Columbia University In the City of New York, priority 2008, published 2010)
